1 molecule from US20030180345A1, “Compositions and methods for inhibiting islet dysfunction and autoimmune disorders” (priority 2000, published 2003) can be followed below.

Experiment [1] relates to fetal islet cells. Put plainly: IL1β-induced apoptosis in cultured fetal islets (TUNEL). It counts as cell-based, Wistar rats. Particulars: IL1β 50 U/ml. On the procedure: The effect of in vitro taurine on the effect of IL1β-induced apoptosis was assessed. Fetal islets were isolated as described above in Example 1. On the 5th day of culture, islets were rinsed twice with serum free DME/F12 medium (1:1, v/v, Gibco, Paisley, Scotland) and were incubated in this medium supplemented with taurine at 0.3 or 3 mmol/l for 48 hours. For the final 24 hours of this incubation, IL1β (Endogen, Woburn, Mass.) was added to the incubation medium at a level of 50 U/ml. Apoptosis was quantified by confocal microscopy using TUNEL method, as outlined in Example 1.

In experiment [2] the test system is fetal islet cells. Put plainly: In vitro fetal islet cell proliferation (BrdU incorporation). To be noted: LP islets; taurine 1.25 or 2.5 mmol/l in culture media. It counts as cell-based, Wistar rats. How it is done: Animals and diets were as described in Example 1. Fetuses were removed at fetal day 21.5, and fetal islet cells were isolated and treated as described in Example 1. Taurine was added to incubation medium at levels of either 0 mmol/l, 1.25 mmol/l or 2.5 mmol/l. Proliferation was evaluated using bromodeoxyuridine (BrdU) incorporation into DNA.

As for `NCCS(=O)(=O)O` [taurine, 2-aminoethylsulfonic acid], the “rate of IL1β-induced apoptosis in islet cells” value with fetal islet cells [1] (C diet group, only the high dose of taurine (3 mmol/l)) is recorded as “decreased significantly”. Moreover, in the experiment with fetal islet cells [1] (LP diet group, taurine 0.3 mmol/l and 3.0 mmol/l), the “number of islet cells positive for IL1β-induced apoptosis” value is listed as “significantly decreased”. The “in vitro islet cell proliferation rate (BrdU)” value with fetal islet cells [2] is reported as “increased LP islet cell proliferation rate to the levels observed in C islets having no taurine addition”.
